From patent publication US9340577B2, “HLA binding motifs and peptides and their uses” (priority 1992, dated 2016) come the findings set out here.

Assay in all cases: biochemical
One test addresses DRB1*0901 (Homo sapiens, UniProt P01903+P01911, A100R/A103E/D57H/D86V/F55Y/F60I/F76Y/I96F/K127E/L162R/M171V/P40D/Q125H/Q99R/R33Q/R42F/S133A/S66N/T210M/V115G/W38K/Y107V/Y59G/Y89S). It is filed as binding.
Another test addresses DRB1*1201 (Homo sapiens, UniProt P01903+P01911, A100R/A169T/D57E/D86V/F55L/H45Y/K41T/L162R/M171V/P40S/Q125H/Q178H/Q39Y/Q99D/R42G/S66L/T262R/V114A/V67L/W38E/Y59H/Y61H/Y89S). It counts as binding.
Another test has as its target DRB1*1501 (Homo sapiens, UniProt P01903+P01911). It counts as binding.
For another test, the target named is DRB1*1101 (Homo sapiens, UniProt P01903+P01911, A100R/A169T/A87E/I96F/K41T/L162R/M171V/P40S/Q125H/Q178H/Q39Y/Q99D/R42S/S66Y/T262R/V115G/W38E). The conditions noted are these: Binding affinity DRB1 *1101.
Sequence of DRB1*1101 (P01903 26-254 limits assumed, other chains not shown): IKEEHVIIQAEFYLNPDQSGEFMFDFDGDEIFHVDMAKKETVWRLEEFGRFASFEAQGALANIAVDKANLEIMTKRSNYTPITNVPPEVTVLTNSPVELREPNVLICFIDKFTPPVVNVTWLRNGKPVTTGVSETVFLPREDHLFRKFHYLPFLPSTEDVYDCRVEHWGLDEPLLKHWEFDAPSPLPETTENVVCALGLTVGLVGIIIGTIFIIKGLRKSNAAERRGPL
A further test concerns the target DRB1*0802 (Homo sapiens, UniProt P01903+P01911, A100R/A103L/A169T/F76Y/H45Y/I96F/K41T/L162R/M171V/P40S/Q125H/Q178H/Q39Y/Q99D/R218S/R42G/S66Y/V115G/W38E). It is filed as binding.
The next test has as its target DRB5*0101 (Homo sapiens, UniProt P01903+Q30154). The conditions noted are these: Binding affinity DRB5 *0101.
The target in a further test is DR7 (DRB1*0701) (Homo sapiens, UniProt P01903+P01911, A100R/A102G/A103Q/D57E/D86V/E43K/F76Y/K127E/L162R/M171V/P40G/Q125H/Q99D/R33Q/R42Y/R54Q/S133A/S66F/T210M/V115G/Y107V/Y59L/Y89S). It is filed as binding.

A word on the IC50: it is the concentration at which inhibition is half-maximal.

No end group written: not given here.

Regarding `CC[C@H](C)[C@H](NC(=O)CNC(=O)[C@H](CCC(N)=O)NC(=O)[C@H](CC(C)C)NC(=O)[C@@H](NC(=O)CNC(=O)[C@H](CC(N)=O)NC(=O)[C@H](CS)NC(=O)[C@@H](NC(=O)[C@H](CC(C)C)NC(=O)[C@@H]1CCCN1C(=O)CN)C(C)C)C(C)C)C(=O)N[C@H](C(=O)N[C@@H](CO)C(=O)N[C@@H](Cc1c[nH]c2ccccc12)C(=O)O)[C@@H](C)O` [Peptide 68.0080], the IC50 is > 20 µM at DRB1*0901 and 1.88 µM at DRB1*1201.
Regarding `CC[C@H](C)[C@H](NC(=O)[C@H](CO)NC(=O)[C@H](CO)NC(=O)[C@H](CC(=O)O)NC(=O)[C@H](C)NC(=O)[C@H](CC(N)=O)NC(=O)[C@@H](NC(=O)[C@H](Cc1ccc(O)cc1)NC(=O)[C@H](C)NC(=O)[C@@H](N)C(C)C)[C@@H](C)CC)C(=O)N[C@@H](CCC(=O)O)C(=O)NCC(=O)N[C@@H](CC(N)=O)C(=O)N[C@@H](Cc1ccc(O)cc1)C(=O)N[C@H](C(=O)O)[C@@H](C)O` [Peptide 68.0177], the half-inhibitory concentration (IC50) was > 20 µM against DRB1*1501; > 20 µM on DRB1*1101; > 20 µM against DRB1*0802; 8.25 µM at DRB1*1201; > 20 µM at DRB5*0101.
In the case of `CC(C)C[C@H](NC(=O)[C@H](CCC(N)=O)NC(=O)[C@H](CC(=O)O)NC(=O)[C@H](CCC(=O)O)NC(=O)[C@H](CO)NC(=O)[C@H](CC(C)C)NC(=O)[C@@H]1CCCN1C(=O)[C@@H](NC(=O)[C@@H](N)[C@@H](C)O)C(C)C)C(=O)N[C@@H](CC(C)C)C(=O)N[C@@H](Cc1ccc(O)cc1)C(=O)N[C@@H](CC(C)C)C(=O)N1CCC[C@H]1C(=O)N[C@@H](Cc1ccccc1)C(=O)N[C@@H](CCCNC(=N)N)C(=O)O` [Peptide 68.0147], the half-inhibitory concentration (IC50) on DRB1*1501 is > 20 µM; against DRB1*0901 it was > 20 µM; at DRB1*1101, > 20 µM; on DRB1*0802, > 20 µM; at DRB1*1201, 9.69 µM; at DRB5*0101 it was > 20 µM.
On to EDFFKLERDMKINCS [Peptide 68.0167], for which the IC50 on DRB1*1501, against DRB1*0901 and against DRB1*1201 was > 20 µM throughout.
On to PRSLQCVSLHLLSND [Peptide 68.0016], for which the IC50 at DRB1*0901 is > 20 µM; against DRB1*1201 it was 3.86 µM; at DRB5*0101, > 20 µM.
Regarding `CC(C)C[C@H](NC(=O)CNC(=O)[C@H](Cc1ccccc1)NC(=O)[C@H](CCC(=O)O)NC(=O)[C@H](CCCCN)NC(=O)[C@@H](N)Cc1c[nH]c2ccccc12)C(=O)N[C@@H](CC(=O)O)C(=O)N[C@@H](CO)C(=O)N[C@H](C(=O)N[C@@H](CCC(=O)O)C(=O)N[C@@H](CC(C)C)C(=O)N[C@@H](C)C(=O)N[C@@H](Cc1c[nH]cn1)C(=O)N[C@@H](Cc1ccc(O)cc1)C(=O)N[C@@H](CC(=O)O)C(=O)O)C(C)C` [Peptide 68.0088], the IC50 against DRB1*1501, against DRB1*1201 and on DRB5*0101 was > 20 µM each time.
For `CC[C@H](C)[C@H](NC(=O)[C@@H](NC(=O)[C@@H](N)CO)C(C)C)C(=O)N[C@@H](CC(C)C)C(=O)N[C@@H](CC(C)C)C(=O)NCC(=O)N[C@@H](CCCNC(=N)N)C(=O)N[C@@H](Cc1c[nH]cn1)C(=O)N[C@@H](CO)C(=O)N[C@@H](CC(C)C)C(=O)N[C@@H](Cc1ccccc1)C(=O)N[C@@H](Cc1c[nH]cn1)C(=O)N1CCC[C@H]1C(=O)N[C@@H](CCC(=O)O)C(=O)N[C@@H](CC(=O)O)C(=O)O` [Peptide 68.0067], the half-inhibitory concentration (IC50) against DR7 (DRB1*0701) was > 20 µM; against DRB1*1201, 0.091 µM.
As to IGYYDAQKLLEKMGG [Peptide 68.0103], the IC50 on DRB1*0901, at DRB1*1101, on DR7 (DRB1*0701) and against DRB1*1201 was > 20 µM in each case.
As for `CC[C@H](C)[C@H](NC(=O)[C@H](CCC(=O)O)NC(=O)[C@H](CC(N)=O)NC(=O)CNC(=O)[C@H](CC(=O)O)NC(=O)[C@H](CCC(=O)O)NC(=O)[C@H](CC(N)=O)NC(=O)[C@@H](NC(=O)[C@@H](NC(=O)[C@H](CO)NC(=O)[C@@H](NC(=O)[C@@H](N)Cc1ccc(O)cc1)[C@@H](C)CC)[C@@H](C)CC)[C@@H](C)CC)C(=O)N[C@@H](Cc1ccccc1)C(=O)N[C@@H](CC(N)=O)C(=O)N[C@H](C(=O)O)[C@@H](C)O` [Peptide 68.0165], the half-maximal inhibitory concentration (IC50) at DRB1*0901, on DRB1*1101, against DR7 (DRB1*0701), against DRB1*0802, against DRB1*1201 and at DRB5*0101 was > 20 µM each time.
For `CSCC[C@H](NC(=O)[C@H](CC(C)C)NC(=O)[C@@H]1CCCN1C(=O)[C@@H](NC(=O)[C@H](CS)NC(=O)[C@H](CC(=O)O)NC(=O)[C@@H](NC(=O)[C@H](CCCNC(=N)N)NC(=O)[C@H](CC(C)C)NC(=O)[C@@H](NC(=O)[C@H](Cc1ccc(O)cc1)NC(=O)[C@@H](N)CC(N)=O)[C@@H](C)O)C(C)C)[C@@H](C)O)C(=O)N[C@@H](Cc1ccc(O)cc1)C(=O)N[C@@H](CO)C(=O)N[C@@H](CC(C)C)C(=O)O` [Peptide 68.0112], the IC50 against DRB1*0901 is > 20 µM; against DR7 (DRB1*0701), > 20 µM; against DRB1*1201 it was 0.594 µM; on DRB5*0101 it was > 20 µM.
As for `CC[C@H](C)[C@H](NC(=O)[C@H](CCCCN)NC(=O)[C@H](CCSC)NC(=O)[C@H](CC(=O)O)NC(=O)[C@H](CCCNC(=N)N)NC(=O)[C@H](CCC(=O)O)NC(=O)[C@H](CC(C)C)NC(=O)[C@H](CCCCN)NC(=O)[C@H](Cc1ccccc1)NC(=O)[C@@H](N)Cc1ccccc1)C(=O)N[C@@H](CC(N)=O)C(=O)N[C@@H](CS)C(=O)N[C@@H](CO)C(=O)NCC(=O)N[C@@H](CCCCN)C(=O)O` [Peptide 68.0168], the concentration for half-maximal inhibition (IC50) on DRB1*1501 was > 20 µM; on DRB1*0901 it was > 20 µM; at DR7 (DRB1*0701) it was > 20 µM; against DRB1*1201, 6.94 µM.
On to `CC[C@H](C)[C@H](NC(=O)[C@H](CO)NC(=O)[C@H](CO)NC(=O)[C@H](CC(=O)O)NC(=O)[C@H](C)NC(=O)[C@H](CC(N)=O)NC(=O)[C@@H](NC(=O)[C@H](Cc1ccc(O)cc1)NC(=O)[C@H](C)NC(=O)[C@@H](NC(=O)CN)C(C)C)[C@@H](C)CC)C(=O)N[C@@H](CCC(=O)O)C(=O)NCC(=O)N[C@@H](CC(N)=O)C(=O)N[C@@H](Cc1ccc(O)cc1)C(=O)O` [Peptide 68.0110], for which the IC50 on DRB1*1101 is > 20 µM; at DRB1*0802, > 20 µM; on DRB1*1201, 5.49 µM; on DRB5*0101, > 20 µM.
Consider `CC[C@H](C)[C@H](NC(=O)[C@H](CO)NC(=O)[C@@H](NC(=O)CNC(=O)[C@H](CCC(=O)O)NC(=O)[C@@H]1CCCN1)C(C)C)C(=O)N[C@@H](Cc1c[nH]c2ccccc12)C(=O)N[C@@H](CC(N)=O)C(=O)N1CCC[C@H]1C(=O)N[C@H](C(=O)N[C@@H](CC(C)C)C(=O)N[C@@H](CC(C)C)C(=O)N[C@@H](Cc1c[nH]c2ccccc12)C(=O)N[C@@H](CCC(N)=O)C(=O)N1CCC[C@H]1C(=O)O)[C@@H](C)CC` [Peptide 68.0033], for which the 50% inhibitory concentration (IC50) at DRB1*0901 is > 20 µM; at DRB1*1101, > 20 µM; against DRB1*0802, > 20 µM; against DRB1*1201, 7.97 µM; on DRB5*0101, > 20 µM.
Consider LTELYFEKGEYFVEM [Peptide 68.0153], for which the IC50 on DRB1*1501 was > 20 µM; on DRB1*0901 it was > 20 µM; at DRB1*1101, > 20 µM; against DRB1*1201, 12.7 µM.
Regarding GKVFRGNKVKNAQLA [Peptide 68.0096], the IC50 against DRB1*0901 and on DRB1*1201 was > 20 µM each time.
Regarding `CC[C@H](C)[C@H](NC(=O)[C@@H](NC(=O)[C@H](Cc1c[nH]cn1)NC(=O)[C@@H](N)CC(C)C)C(C)C)C(=O)N[C@@H](CO)C(=O)N[C@@H](CC(N)=O)C(=O)N[C@@H](CC(=O)O)C(=O)N[C@H](C(=O)N[C@@H](CS)C(=O)N[C@@H](C)C(=O)N[C@@H](CCC(N)=O)C(=O)N[C@H](C(=O)N[C@@H](Cc1c[nH]cn1)C(=O)N1CCC[C@H]1C(=O)N[C@@H](CCC(N)=O)C(=O)O)C(C)C)C(C)C` [Peptide 68.0077], the IC50 against DRB1*1501, on DRB1*0901, at DRB1*1101, against DRB1*0802, against DRB1*1201 and at DRB5*0101 was > 20 µM throughout.
On to `CC[C@H](C)[C@H](NC(=O)[C@H](CO)NC(=O)[C@H](CC(C)C)NC(=O)[C@@H](NC(=O)[C@H](CC(C)C)NC(=O)[C@H](CC(=O)O)NC(=O)[C@H](Cc1c[nH]c2ccccc12)NC(=O)[C@@H](N)CCSC)C(C)C)C(=O)N[C@@H](C)C(=O)N[C@@H](CC(C)C)C(=O)N[C@@H](CO)C(=O)N[C@H](C(=O)NCC(=O)N[C@@H](CS)C(=O)N[C@H](C(=O)O)[C@@H](C)O)C(C)C` [Peptide 68.0001], for which the concentration for half-maximal inhibition (IC50) at DRB1*1101 is > 20 µM; against DRB1*0802, > 20 µM; at DRB1*1201 it was 4.58 µM; at DRB5*0101 it was > 20 µM.
